The text below walks through data of US20100069854A1, “Elastomeric Devices Containing Chlorhexidine/Fatty Acid Salts Made From Fatty Acids of 12 to 18 Carbons” (priority 2008, published 2010).

The nature of series [1]: Rate of release of chlorhexidine/fatty acid salts from coated polyurethane tubes into DI water. Type of series: physicochemical. Conditions: for Cumulative release of the chlorhexidine/fatty acid salts from the coated polyurethane tubes: 1 cm coated tube in DI water, 37° C.
The nature of series [2]: Incorporation of chlorhexidine salts into silicone tubing (swelling impregnation, extraction, HPLC).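 Note: columns differ by chlorhexidine salt concentration in the impregnation solution.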 The series is classed as physicochemical. Conditions: one day, equivalent mass of chlorhexidine base extracted. As to the method:
Chlorhexidine diacetate, Chlorhexidine dodecanoate and chlorhexidine palmitate were loaded into silicone tubing by first dissolving the chlorhexidine salt in a 90% THF+10% Methanol solution.
Impregnated chlorhexidine was extracted from the tubing by immersing in an excess of THF to fully swell it and then adding an equal volume of water to extract the chlorhexidine salt. The quantity of chlorhexidine was determined by previously enumerated HPLC method. It is reported below for different concentration impregnation solutions in terms of the equivalent mass of chlorhexidine base extracted: […]

In the case of `N=C(NCCCCCCNC(=N)NC(=N)Nc1ccc(Cl)cc1)NC(=N)Nc1ccc(Cl)cc1.Nc1ccc(P(=O)(O)O)cc1.Nc1ccc(P(=O)(O)O)cc1` [Chlorhexidine Palmitate, chlorhexidine dipalmitate], the “Cumulative release of the chlorhexidine/fatty acid salts from the coated polyurethane tubes” value in series [1] (Day 1) was 28 g; in series [1] (Day 7), 79 g; in series [1] (Day 14), 112 g; in series [1] (Day 21), 132 g; in series [1] (Day 28) it was 140 g. In addition, the “Release from the coated sample over the test (in words)” value in series [1] (FIG. 1, 28 days in DI water) was “continually released at an appreciable rate throughout the duration of the test”. The “Amount released from the coated sample over the 7 day period” value in series [1] (from 21 to 28 days) stood at 8 µg. Further, the “Salt content in silicone elastomeric medical article” value in series [2] (1% impregnation solution in 90% THF+10% Methanol) is 133 µg/cm; in series [2] (3% impregnation solution in 90% THF+10% Methanol), 205 µg/cm; in series [2] (6% impregnation solution in 90% THF+10% Methanol) it was 356 µg/cm; in series [2] (10% impregnation solution in 90% THF+10% Methanol), 366 µg/cm; in series [2] (20% impregnation solution in 90% THF+10% Methanol) it was 407 µg/cm.
